Measurements: ChEMBL document CHEMBL1275415, “The antimicrobial peptide NK-2, the core region of mammalian NK-lysin, kills intraerythrocytic Plasmodium falciparum” (Antimicrob Agents Chemother, 2008)
The source made the active and inactive calls.

Tests used:
Plasmodium falciparum [1] = assay: Antiplasmodial activity against Plasmodium falciparum 3D7 assessed as reduction in parasite viability after 45 hrs by fluorospectrometry; assay type: functional, organism-based
Plasmodium falciparum [2] = assay: Antiplasmodial activity against Plasmodium falciparum 3D7 schizonts infected in human RBC assessed as induction of hemolysis at 5 to 20 uM after 2 hrs by spectrophotometry; assay type: functional, organism-based
Plasmodium falciparum [3] = assay: Antiplasmodial activity against Plasmodium falciparum 3D7 trophozoites infected in human RBC assessed as induction of hemolysis at 5 to 20 uM after 2 hrs by spectrophotometry; assay type: functional, organism-based
[4] = Cytotoxicity against human RBC assessed as induction of hemolysis at 5 to 20 uM after 2 hrs by spectrophotometry; assay type: cell-based; conditions: erythrocyte
Plasmodium falciparum [5] = assay: Antiplasmodial activity against Plasmodium falciparum 3D7 infected in human RBC assessed as permeabilization of plasma membrane at 10 uM after 20 to 120 min by sytox green dye uptake assay; assay type: functional, organism-based
Plasmodium falciparum [6] = assay: Antiplasmodial activity against Plasmodium falciparum 3D7 infected in human RBC assessed as permeabilization of plasma membrane at 5 uM after 20 to 120 min by sytox green dye uptake assay; assay type: functional, organism-based
Plasmodium falciparum [7] = assay: Antiplasmodial activity against Plasmodium falciparum 3D7 infected in human RBC assessed as appearance of hemozoin crystals at 10 uM after 1 hrs by light microscopy; assay type: functional, organism-based
Plasmodium falciparum [8] = assay: Antiplasmodial activity against Plasmodium falciparum 3D7 trophozoite infected in human RBC assessed as partial induction of hemolysis at 0.1 to 100 uM after 1 hrs by spectrophotometry in presence of 100 ug/ml annexin V and calcium; assay type: functional, organism-based
Plasmodium falciparum [9] = assay: Antiplasmodial activity against Plasmodium falciparum 3D7 trophozoite infected in human RBC assessed as partial induction of hemolysis at 0.1 to 100 uM after 1 hrs by spectrophotometry in presence of > 100 ug/ml annexin V and calcium; assay type: functional, organism-based
Plasmodium falciparum [10] = assay: Antiplasmodial activity against Plasmodium falciparum 3D7 trophozoites infected in human RBC assessed as induction of hemolysis at 10 uM after 90 min by spectrophotometry; assay type: functional, organism-based
Plasmodium falciparum [11] = assay: Antiplasmodial activity against Plasmodium falciparum 3D7 infected in human RBC assessed as permeabilization of plasma membrane at > 20 uM after 20 to 120 min by sytox green dye uptake assay; assay type: functional, organism-based
Plasmodium falciparum [12] = assay: Antiplasmodial activity against Plasmodium falciparum 3D7 assessed as reduction in parasite viability at 6.2 uM after 45 hrs by fluorospectrometry; assay type: functional; conditions: 3D7, 45 h

H-KILRGVCKKIMRTFLRRISKDILTGKK-OH
Non-toxic: Activity [4]
inactive: Activity (Plasmodium falciparum [9]) | Activity (Plasmodium falciparum [11])
active: inhibition (Plasmodium falciparum [1]) Dose-dependent effect | Activity (Plasmodium falciparum [2]) | Activity (Plasmodium falciparum [3]) | Activity (Plasmodium falciparum [5]) | Activity (Plasmodium falciparum [6]) | Activity (Plasmodium falciparum [7]) | Activity (Plasmodium falciparum [8]) | Activity (Plasmodium falciparum [10])
50%: inhibition at 6.2 µM (Plasmodium falciparum [12])
